From the supplement of paper PMC10307832

Legend:
Assay in all cases: relative viability (nuclei count vs DMSO), 5 days (fraction); higher = more cells survive
HARA = system: HARA
Outline: (§1)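 Lung cancer cell lines were seeded in 1536-well plates and dosed by pin tool the next day, with either a single drug or a fixed anchor-drug dose combined with five library-drug doses (not always all listed) spaced in √10 steps. Five days later, one step fixed the cells and stained their nuclei (final 0.05% Triton X-100, 1% formaldehyde, 1 ug/ml Hoechst), and nuclei were counted on 4× images. Relative viability is the nuclei count in treated wells divided by the count in vehicle wells, and each value is the median of duplicate plates.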

NCI-H2126 = system: NCI-H2126
Outline: as §1

LCLC-97TM1 = system: LCLC-97TM1
Outline: as §1

HCC-827 = system: HCC-827
Outline: as §1

NCI-H1792 = system: NCI-H1792
Outline: as §1

NCI-H661 = system: NCI-H661
Outline: as §1

NCI-H1944 = system: NCI-H1944
Outline: as §1

NCI-H23 = system: NCI-H23
Outline: as §1

SK-LU-1 = system: SK-LU-1
Outline: as §1

LC-2-ad = system: LC-2-ad
Outline: as §1

EMC-BAC-2 = system: EMC-BAC-2
Outline: as §1

NCI-H1437 = system: NCI-H1437
Outline: as §1

EKVX = system: EKVX
Outline: as §1

ChaGo-K-1 = system: ChaGo-K-1
Outline: as §1

NCI-H1915 = system: NCI-H1915
Outline: as §1

NCI-H460 = system: NCI-H460
Outline: as §1

LU99A = system: LU99A
Outline: as §1

HCC-15 = system: HCC-15
Outline: as §1

NCI-H322M = system: NCI-H322M
Outline: as §1

NCI-H441 = system: NCI-H441
Outline: as §1

PC-3 [JPC-3] = system: PC-3 [JPC-3]
Outline: as §1

H3255 = system: H3255
Outline: as §1

NCI-H1793 = system: NCI-H1793
Outline: as §1

Compound: Cc1cnc(-c2cnc(NCCNc3ccc(C#N)cn3)nc2-c2ccc(Cl)cc2Cl)[nH]1 + Nc1nc2[nH]cc(CCc3ccc(C(=O)N[C@@H](CCC(=O)O)C(=O)O)cc3)c2c(=O)[nH]1 [Pemetrexed] (partner 0.2 µM)
- relative viability (HARA; first compound 0.08 µM): 0.277
- relative viability (HARA; first compound 0.253 µM): 0.207
- relative viability (HARA; first compound 0.8 µM): 0.255
- relative viability (HARA; first compound 2.53 µM): 0.235
- relative viability (NCI-H2126; first compound 0.08 µM): 0.706
- relative viability (NCI-H2126; first compound 0.253 µM): 0.642
- relative viability (NCI-H2126; first compound 0.8 µM): 0.634
- relative viability (NCI-H2126; first compound 2.53 µM): 0.618
- relative viability (LCLC-97TM1; first compound 0.08 µM): 0.176
- relative viability (LCLC-97TM1; first compound 0.253 µM): 0.183
- relative viability (LCLC-97TM1; first compound 0.8 µM): 0.173
- relative viability (LCLC-97TM1; first compound 2.53 µM): 0.188
- relative viability (HCC-827; first compound 0.08 µM): 0.27
- relative viability (HCC-827; first compound 0.253 µM): 0.267
- relative viability (HCC-827; first compound 0.8 µM): 0.245
- relative viability (HCC-827; first compound 2.53 µM): 0.269
- relative viability (NCI-H1792; first compound 0.08 µM): 0.946
- relative viability (NCI-H1792; first compound 0.253 µM): 0.728
- relative viability (NCI-H1792; first compound 0.8 µM): 0.775
- relative viability (NCI-H1792; first compound 2.53 µM): 0.724
- relative viability (NCI-H661; first compound 0.08 µM): 0.876
- relative viability (NCI-H661; first compound 0.253 µM): 0.887
- relative viability (NCI-H661; first compound 0.8 µM): 0.738
- relative viability (NCI-H661; first compound 2.53 µM): 0.649
- relative viability (NCI-H1944; first compound 0.08 µM): 0.604
- relative viability (NCI-H1944; first compound 0.8 µM): 0.633
- relative viability (NCI-H1944; first compound 2.53 µM): 0.678
- relative viability (NCI-H23; first compound 0.08 µM): 0.667
- relative viability (NCI-H23; first compound 0.253 µM): 0.634
- relative viability (NCI-H23; first compound 0.8 µM): 0.486
- relative viability (NCI-H23; first compound 2.53 µM): 0.438
- relative viability (SK-LU-1; first compound 0.08 µM): 0.966
- relative viability (SK-LU-1; first compound 0.253 µM): 0.97
- relative viability (SK-LU-1; first compound 0.8 µM): 0.975
- relative viability (SK-LU-1; first compound 2.53 µM): 0.823
- relative viability (LC-2-ad; first compound 0.08 µM): 0.276
- relative viability (LC-2-ad; first compound 0.8 µM): 0.252
- relative viability (LC-2-ad; first compound 2.53 µM): 0.247
- relative viability (EMC-BAC-2; first compound 0.08 µM): 0.419
- relative viability (EMC-BAC-2; first compound 0.253 µM): 0.43
- relative viability (EMC-BAC-2; first compound 0.8 µM): 0.393
- relative viability (EMC-BAC-2; first compound 2.53 µM): 0.368
- relative viability (NCI-H1437; first compound 0.08 µM): 0.3
- relative viability (NCI-H1437; first compound 0.253 µM): 0.328
- relative viability (NCI-H1437; first compound 0.8 µM): 0.268
- relative viability (NCI-H1437; first compound 2.53 µM): 0.269
- relative viability (EKVX; first compound 0.08 µM): 0.455
- relative viability (EKVX; first compound 0.253 µM): 0.358
- relative viability (EKVX; first compound 0.8 µM): 0.339
- relative viability (ChaGo-K-1; first compound 0.08 µM): 0.252
- relative viability (ChaGo-K-1; first compound 0.253 µM): 0.265
- relative viability (ChaGo-K-1; first compound 0.8 µM): 0.259
- relative viability (ChaGo-K-1; first compound 2.53 µM): 0.248
- relative viability (NCI-H1915; first compound 0.08 µM): 0.49
- relative viability (NCI-H1915; first compound 0.8 µM): 0.438
- relative viability (NCI-H1915; first compound 2.53 µM): 0.398
- relative viability (NCI-H460; first compound 0.08 µM): 0.073
- relative viability (NCI-H460; first compound 0.253 µM): 0.0754
- relative viability (NCI-H460; first compound 0.8 µM): 0.0676
- relative viability (NCI-H460; first compound 2.53 µM): 0.0722
- relative viability (LU99A; first compound 0.08 µM): 0.177
- relative viability (LU99A; first compound 0.253 µM): 0.201
- relative viability (LU99A; first compound 0.8 µM): 0.191
- relative viability (LU99A; first compound 2.53 µM): 0.198
- relative viability (HCC-15; first compound 0.08 µM): 0.207
- relative viability (HCC-15; first compound 0.253 µM): 0.219
- relative viability (HCC-15; first compound 0.8 µM): 0.216
- relative viability (HCC-15; first compound 2.53 µM): 0.194
- relative viability (NCI-H322M; first compound 0.08 µM): 0.603
- relative viability (NCI-H322M; first compound 0.253 µM): 0.584
- relative viability (NCI-H322M; first compound 0.8 µM): 0.548
- relative viability (NCI-H322M; first compound 2.53 µM): 0.562
- relative viability (NCI-H441; first compound 0.08 µM): 0.271
- relative viability (NCI-H441; first compound 0.8 µM): 0.279
- relative viability (NCI-H441; first compound 2.53 µM): 0.236
- relative viability (PC-3 [JPC-3]; first compound 0.08 µM): 1.08
- relative viability (PC-3 [JPC-3]; first compound 0.253 µM): 1.02
- relative viability (PC-3 [JPC-3]; first compound 0.8 µM): 1.12
- relative viability (PC-3 [JPC-3]; first compound 2.53 µM): 0.969
- relative viability (H3255; first compound 0.08 µM): 0.555
- relative viability (H3255; first compound 0.253 µM): 0.587
- relative viability (H3255; first compound 0.8 µM): 0.533
- relative viability (H3255; first compound 2.53 µM): 0.508
- relative viability (NCI-H1793; first compound 0.08 µM): 1.04
- relative viability (NCI-H1793; first compound 0.253 µM): 0.839
- relative viability (NCI-H1793; first compound 0.8 µM): 0.794
- relative viability (NCI-H1793; first compound 2.53 µM): 1.14
